Assay results from PubChem BioAssay (NCI).
Several values for one entry are separate records, joined by “and”; a condition that tells them apart may be missing. Equal entries are not always repeated.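 Assay format: 96-well plates, 48-hour exposure. Abbreviation: GI50, concentration required for 50% inhibition of growth. TGI is the concentration that stops growth completely.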

How the values were obtained:
Experiment in all cases: NCI-60 cell line screen, 48 h
[1] = tested on: K-562 leukemia
[2] = tested on: UO-31 renal
[3] = tested on: SN12C renal
[4] = tested on: EKVX NSCLC
[5] = tested on: T-47D breast
[6] = tested on: COLO 205 colon
[7] = tested on: HCC-2998 colon
[8] = tested on: OVCAR-8 ovarian
[9] = tested on: HCT-15 colon
[10] = tested on: IGROV1 ovarian

SMILES | GI50 [1] [µM] | TGI [1] [µM] | GI50 [2] | TGI [2] | GI50 [3] [µM] | TGI [3] [µM] | GI50 [4] [µM] | TGI [4] [µM] | GI50 [5] | TGI [5] | GI50 [6] | TGI [6] | GI50 [7] [µM] | TGI [7] [µM] | GI50 [8] | TGI [8] | GI50 [9] [µM] | TGI [9] [µM] | GI50 [10] | TGI [10]
Cc1cc(Nc2ncc(Cl)c(Nc3ccccc3S(=O)(=O)C(C)C)n2)c(OC(C)C)cc1C1CCNCC1 | 1.39 | 3.82 | 1.29 µM and 1.14 µM | 2.63 µM and 2.36 µM | 1.76 | 3.29 | 1.14 | 2.71 | 1.47 µM and 1.57 µM | 3.27 µM and 3.17 µM | 0.312 µM and 0.332 µM | 1.39 µM and 1.28 µM | 0.991 | 2.21 | 1.74 µM and 1.41 µM | 3.59 µM and 4.23 µM | 1.21 | 2.59 | 1.56 µM and 1.12 µM | 3.37 µM and 2.36 µM
Nc1nc(F)nc2c1ncn2C1OC(COP(=O)(O)O)C(O)C1O (stereo not drawn) | – | 1070 | – | 76.4 µM | – | 145 | – | 406 | – | 489 µM | – | 610 µM | – | 1170 | – | 196 µM | – | 1080 | – | 952 µM
OCC1OC(O)C(N=Cc2ccc3c(c2)OCO3)C(O)C1O (stereo not drawn) | – | > 100 | – | > 100 µM | – | > 100 | – | > 100 | – | > 100 µM | – | > 100 µM | – | > 100 | – | > 100 µM | – | > 100 | – | > 100 µM
CCOC(=O)c1ccc2[nH]c(Cc3[nH]c4ccc(C(=O)OCC)cc4c3C)c(C)c2c1 | 0.832 | 17.5 | 7.26 µM | 30.8 µM | 4.92 | 24.7 | 5.09 | 26.4 | 4.94 µM | 23.9 µM | 2.51 µM | 21.2 µM | 4.35 | 59.3 | 1.21 µM | 11.7 µM | 0.129 | 21.4 | 2.35 µM | 17 µM
COc1cc2c(cc1OCCCCCN1CCN(c3cc(=O)oc4c(C)c(OC)ccc34)CC1)N=C[C@@H]1CCCN1C2=O | < 0.01 | 0.316 | 0.014 µM | 0.0383 µM | < 0.01 | 0.0699 | 0.174 | 4.07 | < 0.0174 µM | – | < 0.01 µM | 0.0849 µM | 0.0111 | 0.0372 | 0.018 µM | 5.15 µM | 0.552 | 4.42 | < 0.01 µM | 0.0251 µM
COc1ccc2c(c1)/C(=C/c1c(-c3ccc(C)cc3)nc3sc(C)cn13)C(=O)N2 | 4.95 | > 100 | 10.5 µM | > 100 µM | 13.9 | 31.9 | 9.62 | > 100 | 5.5 µM | > 100 µM | 19.8 µM | > 100 µM | 13.4 | 43.7 | 12.4 µM | > 100 µM | – | – | 32.9 µM | > 100 µM
O=C(c1cccs1)c1c(C(F)(F)F)n([O-])c2cc(C(F)(F)F)ccc2[n+]1=O | 0.0303 | 0.101 | 0.315 µM | 0.656 µM | 0.2 | 0.408 | 0.251 | 0.625 | 0.154 µM | 0.4 µM | 0.174 µM | 0.362 µM | 0.293 | 0.85 | 0.263 µM | 1.48 µM | 0.175 | 0.349 | 0.29 µM | 0.848 µM
COc1ccc(/C(Cl)=C(\C=O)c2cc(OC)c(OC)c(OC)c2)cc1OC | – | > 100 | – | > 100 µM | – | > 100 | – | > 100 | – | > 100 µM | – | > 100 µM | – | > 100 | – | > 63.5 µM | – | > 100 | – | > 100 µM
Nc1c(C(=O)Nc2cccc3ccccc23)sc2nc3c(cc12)CCCCC3 | 0.216 | > 50 | 1.91 µM | > 50 µM | 2.26 | > 50 | 1.35 | > 50 | 5.94 µM | > 50 µM | 1.46 µM | 4.99 µM | 2.41 | > 50 | 1.68 µM | > 50 µM | 0.309 | > 50 | 1.9 µM | > 50 µM
Nc1ccn(C2OC(COP(=O)(O)O)C(O)C2O)c(=O)n1 (stereo not drawn) | – | > 100 | – | > 100 µM | – | > 100 | – | > 100 | – | > 100 µM | – | > 100 µM | – | > 100 | – | > 100 µM | – | > 100 | – | > 100 µM
O=C(CCc1ccc(O)c(O)c1)c1ccc(O)c(O)c1O | – | 66 | – | > 100 µM | – | 31.9 | – | 48.4 | – | 66.3 µM | – | 34.3 µM | – | > 100 | – | 74.2 µM | – | 33 | – | > 100 µM
CC(=O)O[C@H]1C(=O)[C@@]2(C)[C@H]([C@H](OC(=O)c3ccccc3)[C@]3(O)C[C@H](OC(=O)[C@H](OC(=O)CCC(=O)OC4CCC(S/N=C(N)/N=C(\N)N(C)C)CC4)[C@@H](NC(=O)c4ccccc4)c4ccccc4)C(C)=C1C3(C)C)[C@]1(OC(C)=O)CO[C@@H]1C[C@@H]2O (stereo partly drawn) | 0.00692 | > 50 | 0.619 µM | > 50 µM | 0.0325 | > 50 | 0.0269 | > 50 | 0.0139 µM | > 50 µM | 0.00952 µM | 0.0406 µM | 0.0147 | 0.727 | 0.0221 µM | > 50 µM | 0.269 | > 50 | 0.113 µM | > 50 µM
N#Cc1c(N)nc(N2CCOCC2)c(C#N)c1-c1cccc(O)c1 | > 100 | > 100 | – | – | 69 | > 100 | 73.5 | > 100 | 42.7 µM | > 100 µM | 69.3 µM | > 100 µM | 68.5 | > 100 | > 100 µM | > 100 µM | 67 | > 100 | 18.7 µM | 61.2 µM
Cc1cc(S(=O)(=O)/N=C(\N)n2nc(C)c(C)c2C)c(SCc2ccccc2)cc1Cl | 4.15 | > 100 | 4.57 µM | > 100 µM | > 100 | > 100 | 5.38 | > 100 | 3.14 µM | > 100 µM | 74 µM | > 100 µM | > 100 | > 100 | > 100 µM | > 100 µM | 7.1 | > 100 | – | –
